Assays:
[1] = tested on: CD-1 male mice; assay: Visual object response test; format: in vivo, mouse
Procedure: For the overall study 234 mice were used. In sensorimotor (visual object, visual placing, acoustic, and overall tactile responses) tests for MAM-2201, experiments for each treatment dose (vehicle or 5 different MAM-2201 doses, 0.01, 0.1, 1, 3, and 6 mg/kg) used 8 mice (total mice used: 48) and for MAM-2201 with AM-251 pretreatment, experiments for each dose regimen (vehicle + AM-251 or MAM-2201 + AM-251, 6 mg/kg) used 16 mice. In the analysis of spontaneous locomotion (open field test) for MAM-2201, experiments for each treatment regimen (vehicle or 4 different MAM-2201 doses, 0.01, 0.1, 1, and 6 mg/kg) used 10 mice (total mice used: 50). In the PPI test for MAM-2201, experiments for each treatment (vehicle or 3 different MAM-2201 doses, 0.01, 0.1, and 1 mg/kg) used 10 mice (total mice used: 40), while for MAM-2201 experiments in the Novel Object Recognition (NOR) test for each treatment regimen (vehicle or 3 different MAM-2201 and vehicle or 3 different AM-2201 doses, 0.01, 0.1, and 1 mg/kg) used 10 mice (total mice used: 80). In the present study the effect of MAM-2201 on sensorimotor responses was investigated using a battery of behavioral tests widely used in studies of “safety-pharmacology,” that we routinely adopted in our laboratory, for the preclinical characterization of new molecules in rodents (Ossato et al. [2015]; Vigolo et al. [2015]; Bilel et al. [2020]). The voluntary and involuntary motor responses of the animal to different visual, acoustic, and tactile stimuli were evaluated according to the procedure described in our previous studies (Ossato et al. [2015]; Bilel et al. [2020]). To reduce the number of animals used, mice were evaluated in functional observational tests carried out in a consecutive manner according to the following time scheme: observation of visual object responses (frontal and lateral view), acoustic response, tactile response (vibrissae, corneal and pinnae reflexes), and visual placing response. Sensorimotor tests were measured at 10, 30, 60, 120, 180, 240, and 300 min after injections for the evaluation of the visual object, acoustic and the tactile response, and at 15, 45, 75, 135, 195, 255, and 315 min after injections for the evaluation of visual placing response. Behavioral tests were conducted in a thermostated (temperature: 20–22 °C, humidity: 45–55%) and light (150 lx) controlled room with a background noise of 40 ± 4 dB. The apparatus for the visual object, acoustic and tactile sensorimotor tests consisted of an experimental chamber (350 × 350 × 350 mm) with black methacrylate walls and a transparent front door. During the week before the experiment, each mouse was placed in the box and handled (once a day) on every other day, i.e., 3 times, to get used to both the environment and the experimenter. To avoid olfactory cues, cages were carefully cleaned with a dilute (5%) ethanol solution and rinsed with water. All experiments were performed between 8:30 AM and 2:00 PM and conducted by trained observers working in pairs who were blinded to the treatment being tested (Ossato et al. [2015]). The behavior of mice was videotaped by a camera (B/W USB Camera day & night with varifocal lens; Ugo Basile, Italy) placed at the top or on one side of the box and analyzed off-line by a different trained operator. Spontaneous locomotion studies were conducted in a separate set of animals through ANYMAZE test. Sensory gating was evaluated by analysis of the pre-pulse inhibition (PPI) of the acoustic startle reflex as previously described (Bilel et al. [2020]).
Visual object response test was used to evaluate the ability of the mouse to see an object approaching from the front (frontal view) or the side (lateral view) that typically induces the animal to shift or turn the head, bring the forelimbs in the position of “defense” or retreat from it. For the frontal visual response, a white horizontal bar was moved frontally to the mouse head and the maneuver was repeated 3 times. […]

[2] = tested on: CD-1 male mice; assay: Overall tactile response (vibrissae, corneal, pinnae reflexes); format: in vivo, mouse
Procedure: For the overall study 234 mice were used. In sensorimotor (visual object, visual placing, acoustic, and overall tactile responses) tests for MAM-2201, experiments for each treatment dose (vehicle or 5 different MAM-2201 doses, 0.01, 0.1, 1, 3, and 6 mg/kg) used 8 mice (total mice used: 48) and for MAM-2201 with AM-251 pretreatment, experiments for each dose regimen (vehicle + AM-251 or MAM-2201 + AM-251, 6 mg/kg) used 16 mice. In the analysis of spontaneous locomotion (open field test) for MAM-2201, experiments for each treatment regimen (vehicle or 4 different MAM-2201 doses, 0.01, 0.1, 1, and 6 mg/kg) used 10 mice (total mice used: 50). In the PPI test for MAM-2201, experiments for each treatment (vehicle or 3 different MAM-2201 doses, 0.01, 0.1, and 1 mg/kg) used 10 mice (total mice used: 40), while for MAM-2201 experiments in the Novel Object Recognition (NOR) test for each treatment regimen (vehicle or 3 different MAM-2201 and vehicle or 3 different AM-2201 doses, 0.01, 0.1, and 1 mg/kg) used 10 mice (total mice used: 80). In the present study the effect of MAM-2201 on sensorimotor responses was investigated using a battery of behavioral tests widely used in studies of “safety-pharmacology,” that we routinely adopted in our laboratory, for the preclinical characterization of new molecules in rodents (Ossato et al. [2015]; Vigolo et al. [2015]; Bilel et al. [2020]). The voluntary and involuntary motor responses of the animal to different visual, acoustic, and tactile stimuli were evaluated according to the procedure described in our previous studies (Ossato et al. [2015]; Bilel et al. [2020]). To reduce the number of animals used, mice were evaluated in functional observational tests carried out in a consecutive manner according to the following time scheme: observation of visual object responses (frontal and lateral view), acoustic response, tactile response (vibrissae, corneal and pinnae reflexes), and visual placing response. Sensorimotor tests were measured at 10, 30, 60, 120, 180, 240, and 300 min after injections for the evaluation of the visual object, acoustic and the tactile response, and at 15, 45, 75, 135, 195, 255, and 315 min after injections for the evaluation of visual placing response. Behavioral tests were conducted in a thermostated (temperature: 20–22 °C, humidity: 45–55%) and light (150 lx) controlled room with a background noise of 40 ± 4 dB. […] The behavior of mice was videotaped by a camera (B/W USB Camera day & night with varifocal lens; Ugo Basile, Italy) placed at the top or on one side of the box and analyzed off-line by a different trained operator. […] Sensory gating was evaluated by analysis of the pre-pulse inhibition (PPI) of the acoustic startle reflex as previously described (Bilel et al. [2020]). […]

[3] = tested on: CD-1 male mice; assay: Acoustic startle and pre-pulse inhibition (PPI) test; format: in vivo, mouse
[4] = tested on: CD-1 male mice; assay: Acoustic response test; format: in vivo, mouse; settings: for acoustic response reduced to about: immediately after administration
Procedure: For the overall study 234 mice were used. In sensorimotor (visual object, visual placing, acoustic, and overall tactile responses) tests for MAM-2201, experiments for each treatment dose (vehicle or 5 different MAM-2201 doses, 0.01, 0.1, 1, 3, and 6 mg/kg) used 8 mice (total mice used: 48) and for MAM-2201 with AM-251 pretreatment, experiments for each dose regimen (vehicle + AM-251 or MAM-2201 + AM-251, 6 mg/kg) used 16 mice. In the analysis of spontaneous locomotion (open field test) for MAM-2201, experiments for each treatment regimen (vehicle or 4 different MAM-2201 doses, 0.01, 0.1, 1, and 6 mg/kg) used 10 mice (total mice used: 50). In the PPI test for MAM-2201, experiments for each treatment (vehicle or 3 different MAM-2201 doses, 0.01, 0.1, and 1 mg/kg) used 10 mice (total mice used: 40), while for MAM-2201 experiments in the Novel Object Recognition (NOR) test for each treatment regimen (vehicle or 3 different MAM-2201 and vehicle or 3 different AM-2201 doses, 0.01, 0.1, and 1 mg/kg) used 10 mice (total mice used: 80). In the present study the effect of MAM-2201 on sensorimotor responses was investigated using a battery of behavioral tests widely used in studies of “safety-pharmacology,” that we routinely adopted in our laboratory, for the preclinical characterization of new molecules in rodents (Ossato et al. [2015]; Vigolo et al. [2015]; Bilel et al. [2020]). The voluntary and involuntary motor responses of the animal to different visual, acoustic, and tactile stimuli were evaluated according to the procedure described in our previous studies (Ossato et al. [2015]; Bilel et al. [2020]). To reduce the number of animals used, mice were evaluated in functional observational tests carried out in a consecutive manner according to the following time scheme: observation of visual object responses (frontal and lateral view), acoustic response, tactile response (vibrissae, corneal and pinnae reflexes), and visual placing response. Sensorimotor tests were measured at 10, 30, 60, 120, 180, 240, and 300 min after injections for the evaluation of the visual object, acoustic and the tactile response, and at 15, 45, 75, 135, 195, 255, and 315 min after injections for the evaluation of visual placing response. Behavioral tests were conducted in a thermostated (temperature: 20–22 °C, humidity: 45–55%) and light (150 lx) controlled room with a background noise of 40 ± 4 dB. The apparatus for the visual object, acoustic and tactile sensorimotor tests consisted of an experimental chamber (350 × 350 × 350 mm) with black methacrylate walls and a transparent front door. During the week before the experiment, each mouse was placed in the box and handled (once a day) on every other day, i.e., 3 times, to get used to both the environment and the experimenter. To avoid olfactory cues, cages were carefully cleaned with a dilute (5%) ethanol solution and rinsed with water. All experiments were performed between 8:30 AM and 2:00 PM and conducted by trained observers working in pairs who were blinded to the treatment being tested (Ossato et al. [2015]). The behavior of mice was videotaped by a camera (B/W USB Camera day & night with varifocal lens; Ugo Basile, Italy) placed at the top or on one side of the box and analyzed off-line by a different trained operator. […] Sensory gating was evaluated by analysis of the pre-pulse inhibition (PPI) of the acoustic startle reflex as previously described (Bilel et al. [2020]). […]

[5] = tested on: CD-1 male mice; assay: Spontaneous locomotor activity (open field, ANY-maze); format: in vivo, mouse
Procedure: For the overall study 234 mice were used. In sensorimotor (visual object, visual placing, acoustic, and overall tactile responses) tests for MAM-2201, experiments for each treatment dose (vehicle or 5 different MAM-2201 doses, 0.01, 0.1, 1, 3, and 6 mg/kg) used 8 mice (total mice used: 48) and for MAM-2201 with AM-251 pretreatment, experiments for each dose regimen (vehicle + AM-251 or MAM-2201 + AM-251, 6 mg/kg) used 16 mice. In the analysis of spontaneous locomotion (open field test) for MAM-2201, experiments for each treatment regimen (vehicle or 4 different MAM-2201 doses, 0.01, 0.1, 1, and 6 mg/kg) used 10 mice (total mice used: 50). […] The voluntary and involuntary motor responses of the animal to different visual, acoustic, and tactile stimuli were evaluated according to the procedure described in our previous studies (Ossato et al. [2015]; Bilel et al. [2020]). To reduce the number of animals used, mice were evaluated in functional observational tests carried out in a consecutive manner according to the following time scheme: observation of visual object responses (frontal and lateral view), acoustic response, tactile response (vibrissae, corneal and pinnae reflexes), and visual placing response. […] Sensory gating was evaluated by analysis of the pre-pulse inhibition (PPI) of the acoustic startle reflex as previously described (Bilel et al. [2020]). […]

[6] = tested on: CD-1 male mice; set-up: method as in Bilel et al. ([2020]); settings: i.p., value ± SEM, elaborated from earlier data, ref Bilel et al. ([2020]); cited from earlier work
[7] = tested on: CD-1 male mice; set-up: method as in Bilel et al. ([2020]); settings: i.p., value ± SEM, elaborated from earlier data, ref Bilel et al. ([2020]); cited from earlier work; remark: listed apart in the source
[8] = tested on: CD-1 male mice; set-up: method as in Bilel et al. ([2020]); settings: i.p., value ± SEM, elaborated from earlier data, ref Bilel et al. ([2020]); cited from earlier work; remark: listed apart in the source
[9] = tested on: CD-1 male mice; set-up: method as in Bilel et al. [2020]; settings: ref Bilel et al. [2020]; cited from earlier work

Cc1ccc(C(=O)c2cn(CCCCCF)c3ccccc23)c2ccccc12 [MAM-2201, 1-[(5-fluoropentyl)-1H-indol-3-yl](4-methyl-1-naphthalenyl) methanone]
effect on visual object response ([1]; 0.01 mg/kg i.p., at 30 min after injection): transiently reduced | effect on visual object response ([1]; 0.1 mg/kg i.p.): long-lasting inhibition | effect on visual object response ([1]; 1 mg/kg i.p., at 30 min): total inhibition | effect on visual object response ([1]; 3 and 6 mg/kg i.p., until end of test (5 h)): deep and prolonged impairment | ED50 ([1]; Mus musculus, ip, mice, value ± SEM, dose for 50% of overall mean effect): 1.14 ± 0.089 mg/kg | effect on overall tactile response ([2]; 1 mg/kg i.p., first hour after administration): slightly reduced | effect on overall tactile response ([2]; 3 and 6 mg/kg i.p.): deeper and more persistent effect | ED50 ([2]; Mus musculus, ip, mice, value ± SEM): 1.861 ± 0.011 mg/kg | effect on startle amplitude ([3]; only at 1 mg/kg i.p., at 15 and 120 min): reduced | effect on PPI (prepulse startle intensity) ([3]; prepulse 68 dB, 15 min, 0.1 and 1 mg/kg i.p.): significant decrease | decrease of PPI ([3]; prepulse 68 dB, 120 min, 0.1 mg/kg i.p.): ~ 19% | decrease of PPI ([3]; prepulse 68 dB, 120 min, 1 mg/kg i.p.): ~40% | decrease of PPI ([3]; prepulse 75 dB, 15 min, 0.1 mg/kg i.p.): ~ 28% | decrease of PPI ([3]; prepulse 75 dB, 15 min, 1 mg/kg i.p.): ~ 41% | decrease of PPI ([3]; prepulse 75 dB, 120 min, 1 mg/kg i.p.): ~ 34% | decrease of PPI ([3]; prepulse 85 dB, 15 min, 0.1 mg/kg i.p.): ~ 19% | decrease of PPI ([3]; prepulse 85 dB, 15 min, 1 mg/kg i.p.): ~ 37% | decrease of PPI ([3]; prepulse 85 dB, 120 min, 0.1 mg/kg i.p.): ~ 19% | decrease of PPI ([3]; prepulse 85 dB, 120 min, 1 mg/kg i.p.): ~ 37% | acoustic response reduced to about ([4]; 1 mg/kg i.p.): about 20% | acoustic response reduced to about ([4]; 3 mg/kg i.p.): ~80% | acoustic response reduced to about ([4]; 6 mg/kg i.p.): ~100% | ED50 ([4]; Mus musculus, ip, mice, i.p., value ± SEM, acoustic response test, read-out: ED50 (mg/kg), Startle reflex): 1.25 ± 0.013 mg/kg | effect on immobility time ([5]; 1 and 6 mg/kg i.p., first hour): increased | time during which motor capacity was affected ([5]; open field test): ≤ 60 min

O=C(c1cccc2ccccc12)c1cn(CCCCCF)c2ccccc12 [AM-2201, 1-[(5-Fluoropentyl)-1H-indol-3-yl](1-naphthylenyl) methanone]
ED50 (mg/kg), Visual placing [6]: 0.500 ± 0.030 mg/kg | ED50 (mg/kg), Visual object [7]: 1.976 ± 0.063 mg/kg | ED50 (mg/kg), Startle reflex [8]: 1.291 ± 0.010 mg/kg | time during which distance traveled was reduced [9]: up to 45 min

Reference: article PMC10272271, “MAM-2201 acute administration impairs motor, sensorimotor, prepulse inhibition, and memory functions in mice: a comparison with its analogue AM-2201” (Psychopharmacology, 2023)
